Assay results: patent publication US8206983B2, “In vitro methods for the induction and maintenance of plant cell lines as single suspension cells with intact cell walls” (Dow AgroSciences, LLC., priority 2006, dated 2012)

How the values were obtained:
NT1 suspension cells = assay: Effects of colchicine on growth of NT1 suspension cells; format: cell-based, Nicotiana tabacum; settings: 1 mM
Source text: BY2 suspension-cultured cells were obtained from Japan tobacco and maintained in LSBY2 medium in a 7 day cycle. Jimsonweed suspension and Pettite Havana tobacco suspensions were initiated from callus initiated at DAS and Xanthi suspensions were procured as a sample from Professor Jack Widholm from UIUC, IL. JT-NT1 suspension cells, obtained from Washington University that are maintained in NT1B medium in 7 day cycle were used only for the pectin degradation enzyme study to separate the cells into single cells. The cells were cultured in shake flasks at 25-28° C. in dark on orbital shakers at 150 rpm. […] The NT-1 cell line is widely used and readily available; though, any tobacco suspension cell line is consistent with the practice of the invention. […]
Cell expansion and separation were observed by light microscopy (with Nomarski and dark field optics). Spherical cells and single cells were counted by using a hemacytometer to determine the degree of cell expansion and separation, respectively. Cell numbers in aggregates were determined by treating with 5% (wt/vol) chromium trioxide for 16 hr and counting cells (Henshaw et. al, 1966). Cell viability was determined by staining cells (Yokoyama et. al, 1997) with fluorescein diacetate (FDA) and propidium iodide (PI) using a fluorescent microscope (Zeiss Photomicroscope). […]

JM cells = assay: Effects of colchicine on growth and cell separation of Jimson weed suspension cells; format: cell-based
Source text: BY2 suspension-cultured cells were obtained from Japan tobacco and maintained in LSBY2 medium in a 7 day cycle. Jimsonweed suspension and Pettite Havana tobacco suspensions were initiated from callus initiated at DAS and Xanthi suspensions were procured as a sample from Professor Jack Widholm from UIUC, IL. JT-NT1 suspension cells, obtained from Washington University that are maintained in NT1B medium in 7 day cycle were used only for the pectin degradation enzyme study to separate the cells into single cells. The cells were cultured in shake flasks at 25-28° C. in dark on orbital shakers at 150 rpm. […] Stock concentrations of both the tubulin polymerization inhibitors used in this investigation were dissolved in DMSO to prepare a 0.5 M stock solution. The concentration tested for the pectinase and pectolyase enzymes were in the range of 0.0005% to 0.005%. The tobacco suspension cell lines NT-1 and BY-2, for example, are suitable for the practice of the present invention. […] The NT-1 cell line is widely used and readily available; though, any tobacco suspension cell line is consistent with the practice of the invention. […]
Cell expansion and separation were observed by light microscopy (with Nomarski and dark field optics). Spherical cells and single cells were counted by using a hemacytometer to determine the degree of cell expansion and separation, respectively. Cell numbers in aggregates were determined by treating with 5% (wt/vol) chromium trioxide for 16 hr and counting cells (Henshaw et. al, 1966). Cell viability was determined by staining cells (Yokoyama et. al, 1997) with fluorescein diacetate (FDA) and propidium iodide (PI) using a fluorescent microscope (Zeiss Photomicroscope). […] Calcafluor obtained from Sigma, which is a specific fluorescent dye for cellulose is used in this study, and the cellulose-Calcafluor complexing was observed by fluorescence microscopy (Zeiss Photomicroscope). […]

BY2 suspension cells = assay: Effects of colchicine on growth and cell separation of BY2 suspension cells; format: cell-based, tobacco
Source text: BY2 suspension-cultured cells were obtained from Japan tobacco and maintained in LSBY2 medium in a 7 day cycle. Jimsonweed suspension and Pettite Havana tobacco suspensions were initiated from callus initiated at DAS and Xanthi suspensions were procured as a sample from Professor Jack Widholm from UIUC, IL. JT-NT1 suspension cells, obtained from Washington University that are maintained in NT1B medium in 7 day cycle were used only for the pectin degradation enzyme study to separate the cells into single cells. The cells were cultured in shake flasks at 25-28° C. in dark on orbital shakers at 150 rpm. […] Stock concentrations of both the tubulin polymerization inhibitors used in this investigation were dissolved in DMSO to prepare a 0.5 M stock solution. The concentration tested for the pectinase and pectolyase enzymes were in the range of 0.0005% to 0.005%. The tobacco suspension cell lines NT-1 and BY-2, for example, are suitable for the practice of the present invention. BY-2 cells are commercially available and are available according to Nagata et al, for example (Nagata, T., Nemoto, Y., and Hasezawa, S. [1992], Tobacco BY-2 cell line as the “HeLa” cell in the cell biology of higher plants. Int. Rev. Cytol. 132: 1-30). NT-1 cells were originally developed from Nicotiana tabacum L. cv. bright yellow 2. The NT-1 cell line is widely used and readily available; though, any tobacco suspension cell line is consistent with the practice of the invention. It is worth noting that the origins of the NT-1 cell line are unclear. Moreover, the cell line appears variable and is prone to change in response to culture conditions. NT-1 cells suitable for use in the examples below are available from the American Type Culture Collection under accession number ATCC No. 74840. See also U.S. Pat. No. 6,140,075.
Cell expansion and separation were observed by light microscopy (with Nomarski and dark field optics). Spherical cells and single cells were counted by using a hemacytometer to determine the degree of cell expansion and separation, respectively. Cell numbers in aggregates were determined by treating with 5% (wt/vol) chromium trioxide for 16 hr and counting cells (Henshaw et. al, 1966). Cell viability was determined by staining cells (Yokoyama et. al, 1997) with fluorescein diacetate (FDA) and propidium iodide (PI) using a fluorescent microscope (Zeiss Photomicroscope). In order to determine the presence of the cell wall in this single cell cultures optical brightener was used. Calcafluor obtained from Sigma, which is a specific fluorescent dye for cellulose is used in this study, and the cellulose-Calcafluor complexing was observed by fluorescence microscopy (Zeiss Photomicroscope). […]

soybean suspension cells = settings: cited from earlier work

Compound: COc1cc2c(c(OC)c1OC)-c1ccc(OC)c(=O)cc1[C@@H](NC(C)=O)CC2 [Colchicine]
- reduction in growth (NT1 suspension cells): ~50%
- cell growth (JM cells; 0.5 mM): drastically affected
- cell viability (FDA and PI) (JM cells; 1 mM, 7 d): high viability
- single suspension cells (JM cells; 1 mM, 7 days): high degree of single suspension cells
- single suspension cells (BY2 suspension cells; 1 mM, 7 days): high degree of single suspension cells
- amount of cells compared with control cultures (BY2 suspension cells; 1 mM, after 7 days): about equal amounts
- suspension cells seen as single intact cells (BY2 suspension cells; 7 days in 1 mM, then sub-cultured to colchicine-free medium): ~90%
- cell viability (FDA and PI) (BY2 suspension cells; BY2-Variant, 1 mM, 7 d): high viability
- viable cells (soybean suspension cells; 1 mM colchicine): 44.8%
- concentration in culture medium for cell separation (soybean suspension cells): 0.1 to 1.0 mM
